Counter-ions that a name gives are not always drawn.
What was measured:
[1] = target: T1, trypsin (derived from bovine pancreas) (Bos taurus, UniProt P00760); assay: Trypsin inhibitory activity (BAPNA absorbance); format: biochemical; conditions: substrate BAPNA, pH 8.0, 30° C.
T1 construct: trypsin (derived from bovine pancreas); from tissue; host or cells: bovine pancreas
T1 sequence (P00760 24-246): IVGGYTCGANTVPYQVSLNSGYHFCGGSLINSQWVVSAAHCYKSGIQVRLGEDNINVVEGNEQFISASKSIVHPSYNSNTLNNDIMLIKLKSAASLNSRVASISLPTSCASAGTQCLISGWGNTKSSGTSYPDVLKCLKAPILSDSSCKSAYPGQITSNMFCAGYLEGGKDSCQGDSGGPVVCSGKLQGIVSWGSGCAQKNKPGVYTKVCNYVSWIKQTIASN
Method: To 0.2 M HEPES/sodium hydroxide buffer (pH 8.0, 100 μl) and distilled water (640 μl) were added the subject compound in various concentrations or water (10 μl) and a 80 mU/ml trypsin (derived from bovine pancreas) solution (50 μl), and the resulting mixture was allowed to preincubation at 30° C. for a minute. To the resulting reaction mixture, 2.5 mM BAPNA (200 μl) was added, incubation was made at 30° C., and the absorbance at 405 nm was determined. The absorbance in the absence of the subject compound was defined as 100% to obtain the percentage (%) in the existence of the sample compound and calculate the value of IC50.

[2] = target: T2, Tryptase purified from the human lungs; assay: Tryptase inhibitory activity (Boc-Phe-Ser-Arg-MCA fluorescence); format: biochemical; conditions: human lung tryptase, pH 7.5, 37° C., 5 minutes incubation, substrate Boc-Phe-Ser-Arg-MCA
T2 construct: Tryptase was purified from the human lungs in accordance with the method of T. J. Smithetal. described in J. Biol. Chem., 259, 11046 (1984)
Method: Tryptase was purified from the human lungs in accordance with the method of T. J. Smithetal. described in J. Biol. Chem., 259, 11046 (1984). The enzyme purified in the concentration of 25.7 U/ml was diluted 10 times with 100 mM Tris/hydrochloride buffer (pH 7.5) at use. The enzyme solution prepared above (5 μl) was mixed with 100 mM Tris/hydrochloride buffer (pH 7.5, 500 μl) and the aqueous solution of the subject compound in various concentrations or water (5 μl), and the resulting mixture was incubated at 37° C. for 5 minutes. To the reaction mixture was added 20 mM Boc-Phe-Ser-Arg-MCA (2.5 μl), and elevation in fluorescence for a minute was determined at Ex=370 nm, Em=460 nm. The elevation in fluorescence in the absence of the subject compound was defined as 100% to obtain the percentage (%) in the existence of the sample compound and calculate the value of IC50.

[3] = target: T3, PLA2 (derived from pig pancreas) (Sus scrofa, UniProt P00592); assay: PLA2 inhibitory activity (10PY-PC fluorescence); format: biochemical; conditions: pig pancreas PLA2, substrate 10PY-PC, pH 7.5
T3 construct: PLA2 (derived from pig pancreas); from tissue; host or cells: pig pancreas
Method: A reaction mixture was prepared which contained 50 mM Tris/hydrochloride buffer (pH 7.5, 874 μl: 100 mM sodium chloride and 1 mM EDTA contained), 1 M calcium chloride (6 μl), 1% bovine serum albumin (10 μl) and 2.5 mM 10PY-PC (10 μl). To the reaction mixture were added the subject compound in various concentrations or water (50 μl) and a 10 mU/ml PLA2 (derived from pig pancreas) solution (50 μl), and the intensity of fluorescence was determined at Ex=345 nm and Em=396 nm. The intensity of fluorescence in the absence of the subject compound was defined as 100% to obtain the percentage (%) In the existence of the sample compound and calculate the value of IC50.

[4] = Toxicity (LD50, intravenous, male mice); conditions: mouse, in vivo, intravenously administered to male mice
Description: Extremely low toxicity has been confirmed in each of the active ingredients and nontoxic salts and nontoxic acid addition salts thereof encompassed in the present invention. […] Accordingly, any of the active substances encompassed in the present invention can be considered to be adequately safe and suitable for use as pharmaceuticals.

[5] = test system: carbon tetrachloride-induced rat chronic hepatopathy; assay: Effect on carbon tetrachloride-induced rat chronic hepatopathy; format: in vivo; conditions: 3 mg/kg oral once a day for 8 weeks starting 5 weeks after carbon tetrachloride, liver taken at 12 weeks
Method: Carbon tetrachloride (1.5 mg/kg) was repeatedly given to rats by subctaneous administration twice a week for 12 weeks to induce impairment. The liver was taken out 12 weeks after inducing, the effect on hepatic fibrogenesis was evaluated using the hepatic […] content as the indication. The aqueous solution of the subject compound in concentration of 3 mg/kg was repeatedly given by oral administeration once a day for 8 weeks, initially administered 5 weeks after the administration of carbon tetrachloride.

[6] = test system: bleomycin-induced rat pulmonary fibrosis; assay: Effect on bleomycin-induced rat pulmonary fibrosis; format: in vivo; conditions: 10 mg/kg oral once a day for 14 days, lungs taken 15 days after bleomycin
Method: Under anesthetization with pentobarbital, bleomycin hydrochloride (0.9 mg/0.3 ml) was given to rats by endotracheal administration to induce impairment. The lungs were taken out 15 days after inducing, the effect on pulmonary fibrogenesis was evaluated using the pulmonary […] content as the indication. The aqueous solution of the subject compound In concentration of 10 mg/kg was repeatedly given by oral administeration once a day for 14 days, initially administered 10 hours after the administration of bleomycin.

T3 sequence (P00592 23-146): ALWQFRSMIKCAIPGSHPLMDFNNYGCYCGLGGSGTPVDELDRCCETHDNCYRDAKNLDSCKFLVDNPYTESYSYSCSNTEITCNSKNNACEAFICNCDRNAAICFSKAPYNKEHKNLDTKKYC

Row | SMILES | IC50 [2] [nM] | further results
1 | CCOC(=O)C1CCCCN1C(=O)/C=C/c1ccc(C(=O)Oc2ccc(NC(=N)N)cc2)cc1 (stereo not shown) [Acetate of compound 7, p-(p-Guanidinophenoxycarbonyl)cinnamic Acid N-(2-ethoxcarbonyl)piperidlnylamide acetate] |  | IC50 [1]: 180 nM
2 | CCOC(=O)[C@@H]1CCCN1C(=O)/C=C/c1ccc(C(=O)Oc2ccc(NC(=N)N)cc2)cc1 [Acetate of compound 10, p-(p-Guanidinophenoxycarbonyl)cinnamic Acid N-(2-(S)-ethoxycarbonyl)pyrrolidinylamide Acetate] |  | IC50 [1]: 180 nM
3 | C#CCN(CC(=O)OCC)C(=O)/C(C)=C/c1ccc(C(=O)Oc2ccc(C(=N)N)cc2)cc1 [Acetate of compound 18, p-(p-amidinophenoxycarbonyl)-α-methylcinnamic acid N-propargyl-N-ethoxycarbonylmethylamide] | 2.39 | 
4 | C=CCN(CC(=O)OCC)C(=O)/C(C)=C/c1ccc(C(=O)Oc2ccc(C(=N)N)cc2C(=O)OC)cc1 [Acetate of compound 23, p-(4-amidino-2-methoxycarbonylphenoxycarbonyl)-α-methylcinnamic acid N-allyl-N-ethoxycarbonylmethylamide] | 0.46 | 
5 | CCOC(=O)CC(CC(=O)OCC)N(C(=O)/C(C)=C/c1ccc(C(=O)Oc2ccc(C(=N)N)cc2)cc1)C1CCCCC1 [Acetate of compound 24] | 1.14 | 
6 | CCOC(=O)CN(C(=O)/C=C/c1ccc(C(=O)Oc2ccc(NC(=N)N)cc2)cc1)c1ccccc1 [Hydrochloride of compound 5, p-(p-Guanidinophenoxycarbonyl)cinnamic Acid N-phenyl-N-ethoxycarbonylmethylamide Hydrochloride] |  | IC50 [3]: 8000 nM
7 | CCOC(=O)CN(C(=O)/C(C)=C/c1ccc(C(=O)Oc2ccc(NC(=N)N)cc2)cc1)c1ccccc1 [Hydrochloride of compound 6, p-(p-Guanidinophenoxycarbony) -α-methylcinnamic Acid N-phenyl-N-ethoxycarbonylmethylamide Hydrochloride] |  | IC50 [3]: 5000 nM; IC50 [1]: 110 nM
8 | N=C(N)c1ccc(OC(=O)c2ccc(/C=C/C(=O)N3CCN(Cc4ccccc4)CC3)cc2)cc1 [Hydrochloride of compound 19-2, p-(p-amidinophenoxycarbonyl)cinnamic acid N-(4-phenyl-methyl)piperadinylamide] | 0.21 | 
9 | N=C(N)Nc1ccc(C(=O)Oc2ccc(CC(=O)O)cc2)cc1 [Methanesulfonate of compound 3, p-(p-guanidinobenzoyloxy)phenylacetic acid] | 52.9 | 
10 | N=C(N)Nc1ccc(OC(=O)c2cccc(S(N)(=O)=O)c2)cc1 [Methanesulfonate of compound 15, m-(p-guanidinophenoxycarbonyl)benzenesulfonamide] | 192 | 
11 | C=CCN(CC(=O)OCC)C(=O)/C(C)=C/c1ccc(C(=O)Oc2ccc(C(=N)N)cc2)cc1 [Methanesulfonate of compound 16, p-(p-amidinophenoxycarbonyl)-α-methylcinnamic acid N-allyl-N-ethoxycarbonylmethylamide] | 1.4 | LD50 [4]: 117 mg/kg; Amount of hepatic Hydroxypurine [5]: 896.5 ± 686.7 μg/liver; Inhibition ratio (hepatic hydroxypurine) [5]: 58.1%
12 | C=CCN(CC(=O)O)C(=O)/C(C)=C/c1ccc(C(=O)Oc2ccc(C(=N)N)cc2)cc1 [Methanesulfonate of compound 17, p-(p-amidinophenoxycarbonyl)-α-methylcinnamic acid N-allyl-N-carboxylmethylamide] | 12.6 | Amount of pulmonary Hydroxypurine [6]: 3.774 ± 0.504 μg/lung; Inhibition ratio (pulmonary hydroxypurine) [6]: 40.6%

Continued, in another order:

Row | IC50 [2] [nM] | SMILES | further results
13 | 5 | C=CCN(CC(=O)OCC)C(=O)/C(C)=C/c1ccc(C(=O)Oc2ccc(NC(=N)N)cc2)cc1 [Acetate of compound 13, p-(p-Guanidinophenoxycarbonyl)-α-methylcinnamic Acid N-allyl-N-ethoxycarbonylmethylamide Acetate] | IC50 [1]: 160 nM
14 | 0.24 | CCCCCCN(CC(=O)OCC)C(=O)/C(C)=C/c1ccc(C(=O)Oc2ccc(C(=N)N)cc2)cc1 [Acetate of compound 22, p-(p-amidlnophenoxycarbonyl)-α-methylcinnamic acid N-ethoxycarbonylmethyl-N-hexylamide] | 
15 | 1.38 | CCOC(=O)CCN(CCCOC)C(=O)/C(C)=C/c1ccc(C(=O)Oc2ccc(C(=N)N)cc2)cc1 [Hydrochloride of compound 25, p-(p-amidinophenoxycarbonyl)-α-methylcinnamic acid N-2-ethoxycarbonylethyl-N-3-methoxypropylamide] | 
16 | 30 | CCOC(=O)c1ccc(OC(=O)CCCCCNC(=N)N)cc1 [Methanesulfonate of compound 1, p-ethoxycarbonylphenyl 6-guanidinohexanoate] | 
17 | 4.33 | CN(C)C(=O)COC(=O)Cc1ccc(OC(=O)c2ccc(NC(=N)N)cc2)cc1 [Methanesulfonate of compound 2, N,N-ddimethylcarbamoylmethyl p-(p-guanidinobenzoyloxy)phenylacetate] | 
18 | 11.2 | CCOC(=O)CN(C(=O)c1ccc(C(=O)Oc2ccc(NC(=N)N)cc2)cc1)c1ccccc1 [Methanesulfonate of compound 14, p-(p-guanidinophenoxycarbonyl)benzoic acid N-phenyl-N-ethoxycarbonylmethylamide] | 
